Reference: US11999715B2, “ASK1 inhibiting agents” (BIOGEN MA INC., priority 2018, dated 2024)

Experiments:
[1] = In vivo brain penetration, rat Kpuu study; conditions: brain and plasma (unbound concentrations), IV infusion for four hours (1 mg/kg) to steady state, Kpuu=Cu,b/Cu,p
Experimental: Example 113: In Vivo Brain Penetration To evaluate the CNS penetration of the compounds described herein, several compounds were selected for in vivo rat Kpuu studies. In these experiments the compounds are administered via an IV infusion (using N,N-dimethylacetamide:ethanol:1,2-propylene glycol:water in a 1:1:3:5 ratio as the vehicle) in the carotid artery for a period of four hours (1 mg/kg, 0.1 mg/mL) to reach steady state. After this time the plasma and brain concentration levels are quantified, and the values are adjusted by the measured protein binding in plasma and brain homogenate to calculate the Kpuu (see Di, […] . Blood-Brain Barrier in Drug Discovery (Wiley)) according to the equation below. Kpuu=Cu,b/Cu,p Wherein: • Cu,b=Unbound concentration in brain (C×fu,b). (C=concentration at steady state; fu,b=fraction unbound in brain) • And in which: Cu,p=Unbound concentration in plasma (C×fu,p). (C=concentration at steady state; fu,p=fraction unbound in plasma) Plasma and brain protein binding values were generated via the Rapid Equilibrium Dialysis method. The compound of interest was incubated in K2EDTA plasma and brain homogenate (homogenized 1:7 (w:v) in 1×PBS) purchased from BioIVT (Westbury, NY), opposite a buffered compartment of 100 mM Potassium phosphate/150 mM Sodium chloride, pH 7.4, at 1 μM for 4 hr and 6 hr respectively. At the conclusion of incubation samples were taken from both matrix and buffered compartments, matrix-matched using blank buffer and matrix, extracted with acetonitrile, diluted with water, and analyzed utilizing an Agilent RapidFire 365 high-throughput LC coupled with MS/MS detection via an AB Sciex 5500. Free fractions (fu) were then calculated by comparing internal standard/analyte peak-area ratios of matrix and buffered compartments. […] Total drug concentration in plasma and brain tissue was measured via well-established bioanalytical extraction (protein precipitation) and detection methods (LC-MS/MS).

ASK1/MAP3K5 = molecular target: T1, ASK1/MAP3K5 (Homo sapiens, UniProt Q99683); assay: ASK1/MAP3K5 kinase assay by Reaction Biology Corp. (headed ASK1 TR-FRET Assay); assay type: biochemical; conditions: 20 μM myelin basic protein, 10 μM ATP
T1 sequence (Q99683 1-1374): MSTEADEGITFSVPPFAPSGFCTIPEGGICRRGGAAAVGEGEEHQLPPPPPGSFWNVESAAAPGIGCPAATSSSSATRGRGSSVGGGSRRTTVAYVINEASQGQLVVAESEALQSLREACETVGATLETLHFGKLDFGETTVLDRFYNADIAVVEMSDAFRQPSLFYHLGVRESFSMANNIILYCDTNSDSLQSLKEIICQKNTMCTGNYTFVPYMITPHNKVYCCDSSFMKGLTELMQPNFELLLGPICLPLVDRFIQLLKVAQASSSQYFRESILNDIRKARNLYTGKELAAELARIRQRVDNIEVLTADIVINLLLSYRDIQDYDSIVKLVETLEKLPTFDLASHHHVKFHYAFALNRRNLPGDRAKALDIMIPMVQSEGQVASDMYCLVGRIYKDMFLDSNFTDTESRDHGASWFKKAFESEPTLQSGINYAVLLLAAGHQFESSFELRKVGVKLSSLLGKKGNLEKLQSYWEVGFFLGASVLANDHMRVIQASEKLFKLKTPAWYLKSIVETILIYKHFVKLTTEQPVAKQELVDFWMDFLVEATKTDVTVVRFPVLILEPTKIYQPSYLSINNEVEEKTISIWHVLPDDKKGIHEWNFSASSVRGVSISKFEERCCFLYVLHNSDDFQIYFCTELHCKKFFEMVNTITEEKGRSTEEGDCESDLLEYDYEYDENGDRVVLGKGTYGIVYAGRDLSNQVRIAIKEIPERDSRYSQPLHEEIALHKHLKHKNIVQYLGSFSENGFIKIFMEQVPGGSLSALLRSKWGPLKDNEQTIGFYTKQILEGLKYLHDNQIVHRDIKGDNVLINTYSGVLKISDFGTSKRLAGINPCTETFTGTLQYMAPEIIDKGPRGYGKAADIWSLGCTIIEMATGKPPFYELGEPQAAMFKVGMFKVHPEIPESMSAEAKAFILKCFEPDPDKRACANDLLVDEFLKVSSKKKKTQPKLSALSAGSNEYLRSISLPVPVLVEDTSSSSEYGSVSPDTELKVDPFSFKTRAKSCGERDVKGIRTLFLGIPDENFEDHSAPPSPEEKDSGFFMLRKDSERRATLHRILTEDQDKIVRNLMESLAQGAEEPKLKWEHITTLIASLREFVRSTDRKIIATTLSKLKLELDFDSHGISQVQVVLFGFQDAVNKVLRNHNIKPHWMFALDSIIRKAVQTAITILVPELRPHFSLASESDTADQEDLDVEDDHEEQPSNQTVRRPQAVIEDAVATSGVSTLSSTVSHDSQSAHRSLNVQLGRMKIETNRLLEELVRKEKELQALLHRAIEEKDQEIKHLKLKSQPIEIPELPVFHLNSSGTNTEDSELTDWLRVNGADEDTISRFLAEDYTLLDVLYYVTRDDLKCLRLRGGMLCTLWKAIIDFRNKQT
Summary of the method: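 Radiometric filter-binding assay with ASK1/MAP3K5, 20 μM MBP substrate and 10 μM ATP plus ^33P-ATP in HEPES pH 7.5 buffer with 1% DMSO. Compounds were preincubated with kinase 20 min, and the reaction then ran 2 hours at room temperature.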

[2] = molecular target: T2, ASK1 T838 auto phosphorylation (Homo sapiens, UniProt Q99683); assay: ASK1 (AUTO PHOS T838) assay, MSD format, in HEK-293T cells transfected with ASK1-V5; assay type: cell-based; conditions: ASK1 T838 auto phosphorylation in HEK-293T cells, 1 hr compound incubation; class symbols
T2 sequence (Q99683 1-1374): T1 sequence (Q99683 1-1374)
Summary of the method: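 HEK-293T cells transiently transfected with full-length ASK1-V5 plasmid were replated, then treated 1 h at 37 °C with a 10-point, 3-fold series from 20 μM. Lysates were probed by MSD with anti-pASK1 T838 and a sulfo-tag secondary, read by chemiluminescence. IC50 came from a 4-parameter fit of normalized % activity.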

Row | Kp uu at 4 h [1] | IC50 (ASK1/MAP3K5; class symbols) | IC50 [2] | IC50 (ASK1/MAP3K5; class given in words) | Structure (SMILES)
1 | 0.14 | ≤ 100 nM | ≤ 1000 nM | – | C[C@@H](n1cnnc1-c1cccc(NC(=O)c2cn(C)nc2C(F)F)n1)C(F)(F)F [Example 23, (R)-3-(Difluoromethyl)-1-methyl-N-(6-(4-(1,1,1-trifluoropropan-2-yl)-4H-1,2,4-triazol-3-yl)pyridin-2-yl)-1H-pyrazole-4-carboxamide]
2 | 0.33 | ≤ 100 nM | ≤ 1000 nM | – | C=CCn1cc(C(=O)Nc2cccc(-c3nncn3C(C)C(F)(F)F)n2)c(OC)n1 (stereo not shown) [Example 56, 1-Allyl-3-methoxy-N-(6-(4-(1,1,1-trifluoropropan-2-yl)-4H-1,2,4-triazol-3-yl)pyridin-2-yl)-1H-pyrazole-4-carboxamide]
3 | 0.16 | ≤ 100 nM | ≤ 1000 nM | – | COc1nn(-c2ncccc2C)cc1C(=O)Nc1cccc(-c2nncn2C(C)C)n1 [Example 62, N-(6-(4-Isopropyl-4H-1,2,4-triazol-3-yl)pyridin-2-yl)-3-methoxy-1-(3-methylpyridin-2-yl)-1H-pyrazole-4-carboxamide]
4 | – | ≤ 100 nM | ≤ 1000 nM | – | CC(C)n1cncc1-c1cccc(NC(=O)c2cn(-c3cncc(C#N)c3)nc2C(F)F)n1 [Example 95, 1-(5-Cyanopyridin-3-yl)-3-(difluoromethyl)-N-(6-(1-isopropyl-1H-imidazol-5-yl)pyridin-2-yl)-1H-pyrazole-4-carboxamide]
5 | – | 100 to 1000 nM | ≤ 1000 nM | – | CC(C)n1cncc1-c1cccc(NC(=O)c2cn(-c3cncc(C4CC4)c3)nc2C(F)F)n1 [Example 96, 1-(5-Cyclopropylpyridin-3-yl)-3-(difluoromethyl)-N-(6-(1-isopropyl-1H-imidazol-5-yl)pyridin-2-yl)-1H-pyrazole-4-carboxamide]
6 | – | ≤ 100 nM | ≤ 1000 nM | – | COc1cncc(-n2cc(C(=O)Nc3cccc(-c4cncn4C(C)C)n3)c(C(F)F)n2)c1 [Example 97, 3-(Difluoromethyl)-N-(6-(1-isopropyl-1H-imidazol-5-yl)pyridin-2-yl)-1-(5-methoxypyridin-3-yl)-1H-pyrazole-4-carboxamide]
7 | – | 100 to 1000 nM | ≤ 1000 nM | – | CC(C)n1cncc1-c1cccc(NC(=O)c2cn(-c3cncc(N(C)C)c3)nc2C(F)F)n1 [Example 98, 3-(Difluoromethyl)-1-(5-(dimethylamino)pyridin-3-yl)-N-(6-(1-isopropyl-1H-imidazol-5-yl)pyridin-2-yl)-1H-pyrazole-4-carboxamide]
8 | – | ≤ 100 nM | ≤ 1000 nM | – | CC(C)n1cncc1-c1cccc(NC(=O)c2cn(-c3cncc(O)c3)nc2C(F)F)n1 [Example 99, 3-(Difluoromethyl)-1-(5-hydroxypyridin-3-yl)-N-(6-(1-isopropyl-1H-imidazol-5-yl)pyridin-2-yl)-1H-pyrazole-4-carboxamide]
9 | – | ≤ 100 nM | ≤ 1000 nM | – | CC(C)Oc1cncc(-n2cc(C(=O)Nc3cccc(-c4cncn4C(C)C)n3)c(C(F)F)n2)c1 [Example 100, 3-(Difluoromethyl)-1-(5-isopropoxypyridin-3-yl)-N-(6-(1-isopropyl-1H-imidazol-5-yl)pyridin-2-yl)-1H-pyrazole-4-carboxamide]
10 | – | 1000 to 10000 nM | > 10000 nM | – | COc1nn(C)cc1C(=O)Nc1cccc(-c2cncn2C2CC2)c1 [Example 101, N-(3-(1-cyclopropyl-1H-imidazol-5-yl)phenyl)-3-methoxy-1-methyl-1H-pyrazole-4-carboxamide]
11 | – | ≤ 100 nM | ≤ 1000 nM | – | COc1nn(CC(F)(F)F)cc1C(=O)Nc1cccc(-c2nncn2C(C)C)n1 [Example 102, N-(6-(4-Isopropyl-4H-1,2,4-triazol-3-yl)pyridin-2-yl)-3-methoxy-1-(2,2,2-trifluoroethyl)-1H-pyrazole-4-carboxamide]
12 | – | ≤ 100 nM | ≤ 1000 nM | – | COc1nn(CC(F)(F)F)cc1C(=O)Nc1cccc(-c2nncn2[C@@H](C)C(F)(F)F)n1 [Example 103, (S)-3-Methoxy-1-(2,2,2-trifluoroethyl)-N-(6-(4-(1,1,1-trifluoropropan-2-yl)-4H-1,2,4-triazol-3-yl)pyridin-2-yl)-1H-pyrazole-4-carboxamide]
13 | – | ≤ 100 nM | ≤ 1000 nM | – | COc1nn(CC(F)(F)F)cc1C(=O)Nc1cccc(-c2nncn2[C@@H](C)C(C)C)n1 [Example 104, (S)-3-Methoxy-N-(6-(4-(3-methylbutan-2-yl)-4H-1,2,4-triazol-3-yl)pyridin-2-yl)-1-(2,2,2-trifluoroethyl)-1H-pyrazole-4-carboxamide]
14 | – | ≤ 100 nM | ≤ 1000 nM | – | COc1nn(CC(F)(F)F)cc1C(=O)Nc1cccc(-c2nncn2C2CC2)n1 [Example 105, N-(6-(4-Cyclopropyl-4H-1,2,4-triazol-3-yl)pyridin-2-yl)-3-methoxy-1-(2,2,2-trifluoroethyl)-1H-pyrazole-4-carboxamide]
15 | – | ≤ 100 nM | ≤ 1000 nM | – | COc1nn(CC(F)(F)F)cc1C(=O)Nc1cccc(-c2cncn2C(C)C)n1 [Example 106, N-(6-(1-Isopropyl-1H-imidazol-5-yl)pyridin-2-yl)-3-methoxy-1-(2,2,2-trifluoroethyl)-1H-pyrazole-4-carboxamide]
16 | – | – | > 10000 nM | ≥ 10000 nM | COc1nn(C)cc1C(=O)Nc1cccc(-c2nncn2C2COC2)n1 [Example 107, 3-Methoxy-1-methyl-N-(6-(4-(oxetan-3-yl)-4H-1,2,4-triazol-3-yl)pyridin-2-yl)-1H-pyrazole-4-carboxamide]
17 | – | 100 to 1000 nM | 1000 to 10000 nM | – | COc1nn(C)cc1C(=O)Nc1cccc(-c2nncn2C2CCOCC2)n1 [Example 108, 3-Methoxy-1-methyl-N-(6-(4-(tetrahydro-2H-pyran-4-yl)-4H-1,2,4-triazol-3-yl)pyridin-2-yl)-1H-pyrazole-4-carboxamide]
